# Test results published in patent US6774110B2, “Orally available peptidic thrombin inhibitors” (LG Life Sciences Ltd., priority 2001, dated 2004).
# Where a name gives a salt, the structure may show the parent alone.
# Target: T1, thrombin (Homo sapiens, UniProt P00734)
# T1 construct: Thrombin used in this test was prepared from human plasma; from tissue; host or cells: human plasma
# Experiment: In vitro enzyme assay for determining thrombin inhibition constants (Chromozym TH substrate)
# Format: biochemical
# Conditions: thrombin prepared from human plasma; Dixon plot; pH 7.8; read-out: Inhibition constant Ki
# Description: The activity of thrombin was measured spectrophotometrically using tosyl-Gly-Pro-Arg-p-nitroanilide acetate (Chromozym TH, Boehringer Mannheim) as a substrate. […] Each compound was dissolved in DMSO to make a 1 mM stock solution and dilutions were made thereof with assay buffer (0.1 M TrisHCl, 0.15 M NaCl, 0.1% polyethylene glycol 8000, pH 7.8). Different concentrations of inhibitor were mixed with 0.3 NIH units of thrombin in 0.8 mL of the buffer. The mixture was incubated for 10 min at room temperature before adding 0.2 mL of the substrate to a final concentration of 20 μM. […] A graph for the reciprocal value of initial velocity to the inhibitor concentration was derived from progress curves by fitting the data using a linear regression program. […]
row,Structure (SMILES),Ki
1,"N=C(N)c1ccc(CNC(=O)[C@@H]2CCCN2C(=O)[C@H](NS(=O)(=O)Cc2ccccc2)C(c2ccccc2)c2ccccc2)cc1 [Compound 41, N-benzylsulfonyl-D-diphenylalanyl-L-prolyl-[(4-amidinophenyl)methyl]amide.TFA]",0.01 nM
2,"CN(C)S(=O)(=O)N[C@@H](C(=O)N1CCC[C@H]1C(=O)NCc1ccc(C(=N)N)cc1)C(c1ccccc1)c1ccccc1 [Compound 42, N-dimethylaminosulfonyl-D-diphenylalanyl-L-prolyl-[(4-amidinophenyl)methyl]amide.TFA]",0.002 nM
3,"COP(=O)(N[C@@H](C(=O)N1CCC[C@H]1C(=O)NCc1ccc(C(=N)N)cc1)C(c1ccccc1)c1ccccc1)OC [Compound 43, N-dimethoxyphosphoryl-D-diphenylalanyl-L-prolyl-[(4-amidinophenyl)methyl]amide.TFA]",0.011 nM
4,"CP(C)(=O)N[C@@H](C(=O)N1CCC[C@H]1C(=O)NCc1ccc(C(=N)N)cc1)C(c1ccccc1)c1ccccc1 [Compound 44, N-dimethylphosphoryl-D-diphenylalanyl-L-prolyl-[(4-amidinophenyl)methyl]amide.TFA]",0.15 nM
5,"N=C(N)c1ccc(CNC(=O)[C@@H]2CCCN2C(=O)[C@H](NCC(=O)O)C(c2ccccc2)c2ccccc2)cc1 [Compound 45, N-carboxymethyl-D-diphenylalanyl-L-prolyl-[(4-amidinophenyl)methyl]amide.2TFA]",0.02 nM
6,"N=C(N)c1ccc(CNC(=O)[C@@H]2CCCN2C(=O)[C@H](NCC(=O)O)C(c2ccccc2)c2ccccc2)cn1 [Compound 46, N-carboxymethyl-D-diphenylalanyl-L-prolyl-(6-amidino-3-picolyl)amide.2TFA]",0.03 nM
7,"N=C(N)c1ccc(CNC(=O)[C@@H]2CCCN2C(=O)[C@H](NCC(=O)O)C(c2ccccc2)c2ccccc2)cc1F [Compound 47, N-carboxymethyl-D-diphenylalanyl-L-prolyl-[(4-amidino-3-fluorophenyl)methyl]amide.2TFA]",0.05 nM
8,"Cc1cc(CNC(=O)[C@@H]2CCCN2C(=O)[C@H](NCC(=O)O)C(c2ccccc2)c2ccccc2)ccc1C(=N)N [Compound 48, N-carboxymethyl-D-diphenylalanyl-L-prolyl-[(4-amidino-3-methylphenyl)methyl]amide.2TFA]",0.22 nM
9,"CCOC(=O)CN[C@@H](C(=O)N1CCC[C@H]1C(=O)NCc1ccc(C(N)=NO)cc1)C(c1ccccc1)c1ccccc1 [Compound 49, N-(ethoxycarbonyl)methyl-D-diphenylalanyl-L-prolyl-[(4-hydroxyamidinophenyl)methyl]amide.TFA]",15.7 nM
10,"N=C(N)c1ccc(CNC(=O)[C@@H]2CCCN2C(=O)[C@H](Nc2ccccc2)C(c2ccccc2)c2ccccc2)cc1 [Compound 50, N-phenyl-D-diphenylalanyl-L-prolyl-[(4-amidinophenyl)methyl]amide.TFA]",0.045 nM
